# According to ChEMBL document CHEMBL1201862, “PubChem BioAssay data set” (2004):
# Calls of active or inactive are those of the source.
# Legend:
# [1] = molecular target: Bifunctional protein GlmU (Mycobacterium tuberculosis, UniProt P9WMN3); experiment: Inhibitors of Mycobacterial Glucosamine-1-phosphate acetyl transferase (GlmU). Secondary screen.; design: species or system Mycobacterium tuberculosis H37Rv
# [2] = antiviral protection against BTV-induced cell death – arbovirus, BSR cells, confirmation (AID 1250); format: functional;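 note: protection from viral cytopathic effect measured as cell viability by ATP luminescence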
# Hexokinase HKDC1 = molecular target: T1, Hexokinase HKDC1 (Homo sapiens, UniProt Q2TB90); experiment: inhibition of HKDC1 glucose phosphorylation – biochemical, W721R variant, dose response (AID 504729); format: functional
# T1 sequence (Q2TB90 whole entry): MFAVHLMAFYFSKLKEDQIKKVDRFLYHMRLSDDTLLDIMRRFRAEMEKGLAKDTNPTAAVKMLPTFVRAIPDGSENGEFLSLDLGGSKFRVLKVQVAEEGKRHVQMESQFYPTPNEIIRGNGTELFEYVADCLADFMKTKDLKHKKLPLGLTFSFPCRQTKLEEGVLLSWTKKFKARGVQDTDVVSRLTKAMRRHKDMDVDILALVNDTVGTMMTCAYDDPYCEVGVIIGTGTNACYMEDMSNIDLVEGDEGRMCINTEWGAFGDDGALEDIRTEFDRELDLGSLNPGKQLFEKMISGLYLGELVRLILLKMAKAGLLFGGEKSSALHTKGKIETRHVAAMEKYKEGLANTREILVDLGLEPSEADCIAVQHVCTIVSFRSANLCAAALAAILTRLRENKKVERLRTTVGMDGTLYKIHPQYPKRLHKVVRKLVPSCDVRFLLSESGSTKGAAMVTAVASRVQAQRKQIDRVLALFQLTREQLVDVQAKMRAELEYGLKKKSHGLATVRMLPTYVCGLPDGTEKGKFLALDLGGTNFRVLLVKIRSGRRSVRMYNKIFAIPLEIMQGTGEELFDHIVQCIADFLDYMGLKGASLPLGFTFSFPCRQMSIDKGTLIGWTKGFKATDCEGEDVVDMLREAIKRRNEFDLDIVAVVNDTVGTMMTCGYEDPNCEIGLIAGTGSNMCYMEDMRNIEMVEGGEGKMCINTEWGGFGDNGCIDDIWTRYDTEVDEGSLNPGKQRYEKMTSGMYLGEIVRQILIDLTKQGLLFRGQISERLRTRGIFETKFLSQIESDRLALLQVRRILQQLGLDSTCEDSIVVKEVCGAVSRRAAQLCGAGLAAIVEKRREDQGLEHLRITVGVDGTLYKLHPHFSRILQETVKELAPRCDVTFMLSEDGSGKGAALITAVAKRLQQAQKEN
# [3] = molecular target: T2, Histone-lysine N-methyltransferase NSD2 (Homo sapiens, UniProt O96028); format: biochemical
# T2 sequence (O96028 whole entry): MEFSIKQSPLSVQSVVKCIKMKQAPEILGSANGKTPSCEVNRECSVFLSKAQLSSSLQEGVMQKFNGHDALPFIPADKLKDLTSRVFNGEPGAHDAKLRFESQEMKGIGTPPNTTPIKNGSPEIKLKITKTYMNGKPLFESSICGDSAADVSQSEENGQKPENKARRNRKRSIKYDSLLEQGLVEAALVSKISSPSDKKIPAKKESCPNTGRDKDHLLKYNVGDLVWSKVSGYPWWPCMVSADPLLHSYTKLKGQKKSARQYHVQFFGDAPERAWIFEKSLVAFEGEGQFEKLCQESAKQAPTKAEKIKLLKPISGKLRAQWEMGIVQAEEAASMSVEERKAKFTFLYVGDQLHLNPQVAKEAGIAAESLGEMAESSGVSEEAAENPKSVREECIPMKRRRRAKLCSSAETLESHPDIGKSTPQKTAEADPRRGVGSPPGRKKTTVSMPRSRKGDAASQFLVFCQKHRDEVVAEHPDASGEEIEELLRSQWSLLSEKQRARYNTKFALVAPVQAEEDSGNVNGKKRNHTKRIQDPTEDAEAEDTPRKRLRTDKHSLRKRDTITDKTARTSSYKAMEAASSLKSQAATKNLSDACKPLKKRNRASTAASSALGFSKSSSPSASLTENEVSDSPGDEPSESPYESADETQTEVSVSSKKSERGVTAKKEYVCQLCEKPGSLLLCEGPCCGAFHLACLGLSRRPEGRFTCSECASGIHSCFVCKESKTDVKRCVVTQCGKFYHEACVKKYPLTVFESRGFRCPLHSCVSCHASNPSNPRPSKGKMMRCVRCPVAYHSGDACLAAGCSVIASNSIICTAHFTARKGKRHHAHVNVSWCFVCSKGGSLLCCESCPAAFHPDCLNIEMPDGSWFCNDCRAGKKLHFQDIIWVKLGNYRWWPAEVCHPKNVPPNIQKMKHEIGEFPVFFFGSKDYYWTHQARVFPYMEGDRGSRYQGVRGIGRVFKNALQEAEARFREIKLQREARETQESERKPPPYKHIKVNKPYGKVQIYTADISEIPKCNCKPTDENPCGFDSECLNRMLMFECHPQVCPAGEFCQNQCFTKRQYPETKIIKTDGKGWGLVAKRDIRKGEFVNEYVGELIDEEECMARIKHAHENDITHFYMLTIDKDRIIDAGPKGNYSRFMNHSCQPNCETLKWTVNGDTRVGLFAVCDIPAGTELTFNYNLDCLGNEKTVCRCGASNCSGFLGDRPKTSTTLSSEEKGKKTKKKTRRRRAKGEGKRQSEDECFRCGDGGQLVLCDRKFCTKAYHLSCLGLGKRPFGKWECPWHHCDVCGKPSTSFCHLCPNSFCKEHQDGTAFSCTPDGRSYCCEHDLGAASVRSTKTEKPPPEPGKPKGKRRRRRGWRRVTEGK
# Aminopeptidase N = molecular target: T3, Aminopeptidase N (Plasmodium falciparum FcB1/Columbia, UniProt O96935); experiment: malaria alanyl aminopeptidase activity blockers – biochemical, fluorogenic H-Leu-NHMec substrate, 1536-well (AID 1445); design: species or system Plasmodium falciparum 3D7, 3D7
# T3 sequence (O96935 whole entry): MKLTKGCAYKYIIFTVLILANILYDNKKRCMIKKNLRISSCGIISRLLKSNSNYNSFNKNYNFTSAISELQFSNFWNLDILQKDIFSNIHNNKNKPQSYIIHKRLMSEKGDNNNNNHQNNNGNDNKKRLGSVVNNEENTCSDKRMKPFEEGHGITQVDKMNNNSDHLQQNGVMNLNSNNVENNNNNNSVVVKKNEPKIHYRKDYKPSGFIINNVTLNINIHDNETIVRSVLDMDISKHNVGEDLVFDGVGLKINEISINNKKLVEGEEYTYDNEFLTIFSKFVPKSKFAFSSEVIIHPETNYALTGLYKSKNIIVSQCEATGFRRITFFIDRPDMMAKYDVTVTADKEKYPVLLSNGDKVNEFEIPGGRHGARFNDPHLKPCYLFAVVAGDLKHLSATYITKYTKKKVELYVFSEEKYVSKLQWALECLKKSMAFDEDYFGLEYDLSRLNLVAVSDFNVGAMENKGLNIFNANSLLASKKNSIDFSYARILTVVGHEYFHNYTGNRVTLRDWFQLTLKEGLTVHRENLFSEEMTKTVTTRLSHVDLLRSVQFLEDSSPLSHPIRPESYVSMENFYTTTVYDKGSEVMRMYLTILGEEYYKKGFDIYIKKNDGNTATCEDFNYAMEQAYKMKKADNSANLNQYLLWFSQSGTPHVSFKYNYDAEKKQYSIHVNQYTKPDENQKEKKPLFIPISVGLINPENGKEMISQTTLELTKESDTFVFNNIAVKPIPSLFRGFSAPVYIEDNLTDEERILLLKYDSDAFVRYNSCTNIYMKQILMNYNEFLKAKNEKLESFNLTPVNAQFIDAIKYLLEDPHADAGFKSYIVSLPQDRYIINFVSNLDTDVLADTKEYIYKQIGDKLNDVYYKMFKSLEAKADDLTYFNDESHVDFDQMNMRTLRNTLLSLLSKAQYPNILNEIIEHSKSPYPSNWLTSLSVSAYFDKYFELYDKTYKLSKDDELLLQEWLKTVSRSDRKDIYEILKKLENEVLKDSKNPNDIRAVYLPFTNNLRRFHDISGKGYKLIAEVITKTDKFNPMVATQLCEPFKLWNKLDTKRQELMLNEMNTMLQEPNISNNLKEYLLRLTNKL
# [4] = molecular target: Mitogen-activated protein kinase 10 (Homo sapiens, UniProt P53779); experiment: Dose response biochemical screening assay for inhibitors of c-Jun N-Terminal Kinase 3 (JNK3). [Related pubchem assays: 746 ]
# Mitogen-activated protein kinase 10, sequence (P53779 whole entry): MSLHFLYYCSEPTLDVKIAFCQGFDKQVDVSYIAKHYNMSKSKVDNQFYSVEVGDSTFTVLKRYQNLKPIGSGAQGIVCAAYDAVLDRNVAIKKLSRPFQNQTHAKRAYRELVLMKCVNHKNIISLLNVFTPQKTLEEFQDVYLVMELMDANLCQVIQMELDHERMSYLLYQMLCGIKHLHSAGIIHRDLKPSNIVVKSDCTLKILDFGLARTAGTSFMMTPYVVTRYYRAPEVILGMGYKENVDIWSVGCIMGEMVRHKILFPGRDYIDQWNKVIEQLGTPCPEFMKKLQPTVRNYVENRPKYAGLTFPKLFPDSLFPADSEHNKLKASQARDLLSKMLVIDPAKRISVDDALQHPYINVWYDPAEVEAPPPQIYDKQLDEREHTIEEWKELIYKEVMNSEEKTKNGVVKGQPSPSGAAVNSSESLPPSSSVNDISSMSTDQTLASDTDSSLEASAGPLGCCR
# [5] = molecular target: Sphingosine 1-phosphate receptor 2 (Homo sapiens, UniProt O95136); experiment: Dose Response Cell Based Assay for Agonists of the S1P2 Receptor. [Related pubchem assays: 729, 736, 843 ]; format: functional
# Sphingosine 1-phosphate receptor 2, sequence (O95136 whole entry): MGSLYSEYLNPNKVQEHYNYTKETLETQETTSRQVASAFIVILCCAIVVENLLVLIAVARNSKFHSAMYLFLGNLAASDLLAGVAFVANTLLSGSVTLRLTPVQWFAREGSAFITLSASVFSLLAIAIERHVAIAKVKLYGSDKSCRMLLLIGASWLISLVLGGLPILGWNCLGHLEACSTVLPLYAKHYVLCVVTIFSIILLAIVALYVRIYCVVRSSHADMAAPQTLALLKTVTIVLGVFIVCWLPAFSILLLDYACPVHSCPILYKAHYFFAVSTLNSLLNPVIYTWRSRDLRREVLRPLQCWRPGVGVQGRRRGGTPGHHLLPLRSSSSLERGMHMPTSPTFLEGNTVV
# [6] = molecular target: T4, Rac GTPase-activating protein 1 (Homo sapiens, UniProt Q9H0H5); experiment: blockers of MgcRacGAP-driven Rac1 GTP hydrolysis – biochemical, ADP Hunter fluorescence, primary and confirmatory, confirmation (AID 624330); format: functional
# T4 sequence (Q9H0H5 whole entry): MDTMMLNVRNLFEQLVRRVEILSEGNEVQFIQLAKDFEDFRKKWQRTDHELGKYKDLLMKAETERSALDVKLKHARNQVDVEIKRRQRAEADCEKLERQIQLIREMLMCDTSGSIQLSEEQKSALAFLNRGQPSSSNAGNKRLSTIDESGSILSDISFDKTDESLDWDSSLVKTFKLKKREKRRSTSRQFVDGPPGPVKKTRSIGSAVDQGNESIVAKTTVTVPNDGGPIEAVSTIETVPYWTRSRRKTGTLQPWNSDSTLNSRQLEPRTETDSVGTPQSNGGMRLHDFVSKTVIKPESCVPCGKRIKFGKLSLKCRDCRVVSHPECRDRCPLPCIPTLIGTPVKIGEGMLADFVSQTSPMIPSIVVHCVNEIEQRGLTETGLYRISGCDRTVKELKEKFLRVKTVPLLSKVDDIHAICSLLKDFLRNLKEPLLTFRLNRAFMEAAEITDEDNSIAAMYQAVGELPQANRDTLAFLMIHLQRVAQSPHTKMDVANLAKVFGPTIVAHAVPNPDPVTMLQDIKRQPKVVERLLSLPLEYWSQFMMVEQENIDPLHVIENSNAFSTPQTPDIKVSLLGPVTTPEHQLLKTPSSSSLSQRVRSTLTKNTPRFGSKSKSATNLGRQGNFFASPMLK
# [7] = molecular target: Mannose-6-phosphate isomerase (Homo sapiens, UniProt P34949); experiment: MPI inhibition at elevated mannose 6-phosphate – biochemical, fluorescence intensity, high mannose 6-phosphate, primary screen (AID 1220)
# Mannose-6-phosphate isomerase, sequence (P34949 whole entry): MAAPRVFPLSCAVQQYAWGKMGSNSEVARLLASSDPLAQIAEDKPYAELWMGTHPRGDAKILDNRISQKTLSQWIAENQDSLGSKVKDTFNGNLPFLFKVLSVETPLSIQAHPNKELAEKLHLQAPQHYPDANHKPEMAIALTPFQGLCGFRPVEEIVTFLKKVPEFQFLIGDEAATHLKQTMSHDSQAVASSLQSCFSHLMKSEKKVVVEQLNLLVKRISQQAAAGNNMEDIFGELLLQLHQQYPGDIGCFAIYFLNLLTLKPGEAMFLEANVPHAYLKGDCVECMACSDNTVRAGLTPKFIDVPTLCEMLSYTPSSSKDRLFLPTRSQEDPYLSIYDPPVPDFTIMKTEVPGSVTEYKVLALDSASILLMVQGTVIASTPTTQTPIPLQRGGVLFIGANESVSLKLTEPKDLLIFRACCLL
# [8] = molecular target: T5, Apoptotic protease-activating factor 1 (Homo sapiens, UniProt O14727); format: functional
# T5 sequence (O14727 whole entry): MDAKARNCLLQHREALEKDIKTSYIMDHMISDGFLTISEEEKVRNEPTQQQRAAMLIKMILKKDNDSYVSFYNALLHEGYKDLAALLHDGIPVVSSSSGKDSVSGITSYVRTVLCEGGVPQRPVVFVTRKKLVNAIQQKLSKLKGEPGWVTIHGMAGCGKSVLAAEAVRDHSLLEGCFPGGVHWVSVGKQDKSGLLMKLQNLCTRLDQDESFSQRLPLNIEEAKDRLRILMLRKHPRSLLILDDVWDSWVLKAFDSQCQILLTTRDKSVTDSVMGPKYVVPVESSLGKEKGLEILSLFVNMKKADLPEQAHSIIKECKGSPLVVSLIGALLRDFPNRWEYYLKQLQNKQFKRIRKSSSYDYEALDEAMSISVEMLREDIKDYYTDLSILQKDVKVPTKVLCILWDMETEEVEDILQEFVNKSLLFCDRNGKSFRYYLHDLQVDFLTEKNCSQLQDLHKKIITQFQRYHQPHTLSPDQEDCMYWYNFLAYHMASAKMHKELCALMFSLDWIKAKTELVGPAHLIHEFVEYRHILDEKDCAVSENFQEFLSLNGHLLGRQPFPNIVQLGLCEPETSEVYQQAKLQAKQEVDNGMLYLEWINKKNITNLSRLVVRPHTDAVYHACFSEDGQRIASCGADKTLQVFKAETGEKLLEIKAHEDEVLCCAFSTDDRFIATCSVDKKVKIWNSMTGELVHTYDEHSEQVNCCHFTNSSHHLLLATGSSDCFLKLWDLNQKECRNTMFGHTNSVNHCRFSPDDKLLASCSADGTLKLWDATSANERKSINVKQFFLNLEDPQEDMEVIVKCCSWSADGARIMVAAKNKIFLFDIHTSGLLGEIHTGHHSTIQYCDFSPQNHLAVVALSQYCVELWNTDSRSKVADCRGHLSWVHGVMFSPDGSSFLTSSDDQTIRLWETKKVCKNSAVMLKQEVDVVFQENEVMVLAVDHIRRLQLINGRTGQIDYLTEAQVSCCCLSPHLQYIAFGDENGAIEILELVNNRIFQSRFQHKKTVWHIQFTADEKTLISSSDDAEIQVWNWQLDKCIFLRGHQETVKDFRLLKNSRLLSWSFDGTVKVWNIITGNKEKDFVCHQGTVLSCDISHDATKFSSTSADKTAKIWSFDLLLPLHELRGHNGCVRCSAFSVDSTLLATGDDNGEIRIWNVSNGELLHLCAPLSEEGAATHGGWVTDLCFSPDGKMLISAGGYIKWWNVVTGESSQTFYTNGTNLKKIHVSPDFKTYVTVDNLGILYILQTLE
# [9] = molecular target: T6, Low molecular weight phosphotyrosine protein phosphatase (Homo sapiens, UniProt P24666); experiment: inhibition of human LMPTP enzyme activity – biochemical, absorbance, pNPP substrate, LMPTP-A isoform, set 2, orthogonal assay, dose response (AID 743308); format: functional
# T6 sequence (P24666 whole entry): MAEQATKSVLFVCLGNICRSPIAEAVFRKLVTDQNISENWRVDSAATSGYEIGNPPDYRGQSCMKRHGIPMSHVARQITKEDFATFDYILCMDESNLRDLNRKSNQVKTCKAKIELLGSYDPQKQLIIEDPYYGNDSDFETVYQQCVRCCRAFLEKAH
# [10] = molecular target: T6, Low molecular weight phosphotyrosine protein phosphatase; experiment: inhibition of LMPTP-A enzymatic activity – biochemical, OMFP substrate, fluorescence intensity, set 2, dose response (AID 743307); format: functional
# Bifunctional protein GlmU, sequence (P9WMN3 whole entry): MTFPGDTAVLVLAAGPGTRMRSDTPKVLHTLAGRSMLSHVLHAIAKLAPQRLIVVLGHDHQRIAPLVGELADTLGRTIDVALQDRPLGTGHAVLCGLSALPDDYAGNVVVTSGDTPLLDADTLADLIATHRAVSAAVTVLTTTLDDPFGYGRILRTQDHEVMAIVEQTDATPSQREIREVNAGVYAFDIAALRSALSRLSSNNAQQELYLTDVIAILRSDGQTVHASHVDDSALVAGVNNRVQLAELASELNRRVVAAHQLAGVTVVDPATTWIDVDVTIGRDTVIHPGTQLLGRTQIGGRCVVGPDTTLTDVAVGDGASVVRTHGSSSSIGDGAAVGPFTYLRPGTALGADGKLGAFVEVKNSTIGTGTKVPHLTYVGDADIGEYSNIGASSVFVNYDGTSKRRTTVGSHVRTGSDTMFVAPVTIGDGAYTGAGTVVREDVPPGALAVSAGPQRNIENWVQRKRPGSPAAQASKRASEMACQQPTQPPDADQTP
compound,measurement,setting,value
COc1cc(/C=C(\C#N)c2nc3cc(C)ccc3[nH]2)cc([N+](=O)[O-])c1O,IC50,[1],94.3 µM (active)
same,IC50,[2],24.5 µM (active)
same,IC50,Hexokinase HKDC1,16.1 µM (active)
same,AC50,[3],> 20 µM (inactive)
same,IC50,Aminopeptidase N,16.2 µM (active)
Cc1nn(C)cc1CNC(=O)c1cnn2c(C(F)F)cc(C3CC3)nc12,IC50,[4],26.8 µM (not active)
COC(=O)c1c[nH]nc1N=C(S)Nc1ccccc1C,EC50,[5],> 50 µM (not active)
CC1(C)CNc2cc(N)ccc2S1,IC50,[6],22.9 µM (active)
same,IC50,[7],> 50 µM (not active)
same,IC50,[8],7.45 µM (active)
CCN(CC)c1nc(-c2ccccc2)nc2ccccc12,IC50,[9],> 80 µM (inactive)
same,IC50,[10],53.1 µM (inactive)
